Laboratory results reported in patent US20100120690A1, “Polypeptides Having Antimicrobial Activity and Polynucleotides Encoding Same” (Novozymes Adenium Biotech A/S, priority 2005, published 2010).

Assays:
Assay type in all cases: cell-based
[1] = test system: Staphylococcus aureus, ATCC 29737; experiment: MIC, NCCLS/CLSI guidelines (Example 5), strain C; details: relative to wildtype Plectasin; average of two independent experiments
Method: (§1) Plectasin wild-type (SEQ ID NO: 1) and several variants of Plectasin were expressed and purified. The Minimal Inhibitory Concentration (MIC) was determined to test for their antimicrobial activity following the NCCLS guidelines from CLSI (Clinical and Laboratory Standards Institute; formerly known as National Committee for Clinical and Laboratory Standards).
(§2) The peptides were tested against the following strains: • A: Staphylococcus aureus, ATCC 29213; • B: Staphylococcus aureus, ATCC 25923; • C: Staphylococcus aureus, ATCC 29737; • D: Staphylococcus aureus, MRSA ST5 (2001), multi-resistant clinical human isolate from Statens Serum Institut, Denmark; • E: Staphylococcus aureus, MRSA ST80 (2003), multi-resistant clinical human isolate from Statens Serum Institut, Denmark.
(§3) All MIC values represent an average of two independent experiments; and all results in Table 5 are expressed relative to wildtype Plectasin:
(§4) 0: >100% of Plectasin wildtype MIC; 1: 80-100% of Plectasin wildtype MIC; 2: 50-80% of Plectasin wildtype MIC; 3: <50% of Plectasin wildtype MIC.

[2] = test system: Staphylococcus aureus, ATCC 29213; experiment: MIC, NCCLS/CLSI guidelines (Example 5), strain A; details: relative to wildtype Plectasin; average of two independent experiments
Method: as §1, §2, §3, §4

[3] = test system: Staphylococcus aureus, MRSA ST80 (2003); experiment: MIC, NCCLS/CLSI guidelines (Example 5), strain E; details: relative to wildtype Plectasin; average of two independent experiments
Method: as §1, §2, §3, §4

[4] = test system: Staphylococcus aureus, MRSA ST5 (2001); experiment: MIC, NCCLS/CLSI guidelines (Example 5), strain D; details: relative to wildtype Plectasin; average of two independent experiments
Method: as §1, §2, §3, §4

[5] = test system: panel of 6 different strains of Staphylococcus aureus; experiment: Average MIC, NCCLS/CLSI guidelines using caMHB (Example 6); details: average over 6 S. aureus strains, duplicate; MIC above 32 counted as 64; read after 18-24 hours at 37° C.
Method: A large number of antimicrobial peptides of the invention were tested against a panel of 6 different strains of Staphylococcus aureus listed below:
Staphylococcus aureus, ATCC29213, MSSA, NCCLS reference strain; Staphylococcus aureus, ATCC25923, MSSA, NCCLS reference strain; Staphylococcus aureus, ATCC29737, MSSA; Staphylococcus aureus, E33235, MSSA; Staphylococcus aureus, 698-01, MRSA ST5, Str, Kan, Oxa; Staphylococcus aureus, 566-03, MRSA ST80, Oxa, Tet, Fus, Kan.
The staphylococci were exposed to the following peptide concentrations: 32; 16; 8; 4; 2; 1; 0.5; 0.25; 0.13; […]; and 0.03 microgram/mL. All peptides were purified, HPLC quantified and the concentrated peptides (>160 micrograms/mL) were diluted to 160 micrograms/mL in peptide dilution buffer (0.1% BSA, 0.01% Acetic Acid).
The MIC determination was done essentially as described by NCCLS/CLSI guidelines using caMHB. The MICs were read after 18-24 hours of 37° C. incubations and recorded along with the CFU in the table below.
A total number of 95 antimicrobial peptides of the invention were evaluated in duplicate against the 6 bacterial strains described above.
In the majority of the double determinations (93%), the MIC varied <2 fold. An average MIC is tabulated below. If the MIC was above 32 micrograms/mL, a value of 64 was used to calculate the average.

[6] = test system: Staphylococcus aureus, ATCC 25923; experiment: MIC, NCCLS/CLSI guidelines (Example 5), strain B; details: relative to wildtype Plectasin; average of two independent experiments
Method: as §1, §2, §3, §4

Row | Substance | Relative MIC, strain C [1] | Relative MIC, strain A [2] | Relative MIC, strain E [3] | Relative MIC, strain D [4] | Average MIC [5] [micrograms/mL] | Relative MIC, strain B [6]
1 | N5G + M13Y + N17K: variant of Plectasin (SEQ ID NO: 1) (GFGCGGPWDEDDYQCHKHCKSIKGYKGGYCAKGGFVCKCY) | 3 (<50% of Plectasin wildtype MIC) | 3 (<50% of Plectasin wildtype MIC) | 2 (50-80% of Plectasin wildtype MIC) | 3 (<50% of Plectasin wildtype MIC) | 5 | 3 (<50% of Plectasin wildtype MIC)
2 | N5A + D9S + M13L + N17T: variant of Plectasin (SEQ ID NO: 1) (GFGCAGPWSEDDLQCHTHCKSIKGYKGGYCAKGGFVCKCY) | 3 (<50% of Plectasin wildtype MIC) | 0 (>100% of Plectasin wildtype MIC) | 3 (<50% of Plectasin wildtype MIC) | 2 (50-80% of Plectasin wildtype MIC) | 6 | 3 (<50% of Plectasin wildtype MIC)
3 | N5G + M13L: variant of Plectasin (SEQ ID NO: 1) (GFGCGGPWDEDDLQCHNHCKSIKGYKGGYCAKGGFVCKCY) | 3 (<50% of Plectasin wildtype MIC) | 2 (50-80% of Plectasin wildtype MIC) | 3 (<50% of Plectasin wildtype MIC) | 3 (<50% of Plectasin wildtype MIC) | 4 | 3 (<50% of Plectasin wildtype MIC)
4 | N5S + D9S: variant of Plectasin (SEQ ID NO: 1) (GFGCSGPWSEDDMQCHNHCKSIKGYKGGYCAKGGFVCKCY) | 3 (<50% of Plectasin wildtype MIC) | 0 (>100% of Plectasin wildtype MIC) | 3 (<50% of Plectasin wildtype MIC) | 2 (50-80% of Plectasin wildtype MIC) | 6 | 3 (<50% of Plectasin wildtype MIC)
5 | D9N + M13L + Q14R: variant of Plectasin (SEQ ID NO: 1) (GFGCNGPWNEDDLRCHNHCKSIKGYKGGYCAKGGFVCKCY) | 3 (<50% of Plectasin wildtype MIC) | 3 (<50% of Plectasin wildtype MIC) | 3 (<50% of Plectasin wildtype MIC) | 3 (<50% of Plectasin wildtype MIC) | 1 | 3 (<50% of Plectasin wildtype MIC)
6 | D9N + Q14H + K38R: variant of Plectasin (SEQ ID NO: 1) (GFGCNGPWNEDDMHCHNHCKSIKGYKGGYCAKGGFVCRCY) | 3 (<50% of Plectasin wildtype MIC) | 3 (<50% of Plectasin wildtype MIC) | 2 (50-80% of Plectasin wildtype MIC) | 3 (<50% of Plectasin wildtype MIC) | 4 | 3 (<50% of Plectasin wildtype MIC)
7 | D9A + Q14H + K26R + V36L: variant of Plectasin (SEQ ID NO: 1) (GFGCNGPWAEDDMHCHNHCKSIKGYRGGYCAKGGFLCKCY) | 3 (<50% of Plectasin wildtype MIC) | 3 (<50% of Plectasin wildtype MIC) | 3 (<50% of Plectasin wildtype MIC) | 3 (<50% of Plectasin wildtype MIC) | 1 | 3 (<50% of Plectasin wildtype MIC)
8 | M13G + N17R + G33A: variant of Plectasin (SEQ ID NO: 1) (GFGCNGPWDEDDGQCHRHCKSIKGYKGGYCAKAGFVCKCY) | 3 (<50% of Plectasin wildtype MIC) | 3 (<50% of Plectasin wildtype MIC) | 3 (<50% of Plectasin wildtype MIC) | 3 (<50% of Plectasin wildtype MIC) | 2 | 3 (<50% of Plectasin wildtype MIC)
